# Data from BindingDB's records for patent WO2023288264 (Blueprint Medicines, 2023).
# Several values for one entry are separate records, joined by “and”; a condition that tells them apart may be missing. Equal values may be shown once.
# Target: Mitogen-activated protein kinase kinase kinase kinase 1 (Homo sapiens, UniProt Q92918)
# Assay: MAP4K1 Biochemical Enzymatic Activity
# Experimental: Inhibitors were dissolved in 100% DMSO at a stock concentration of 10 mM. A 100X, 10-point, 4-fold serial dilution of each inhibitor was created in 100% DMSO either manually or on a Hamilton STAR liquid handler, starting at a relevant concentration, usually 1 mM. A volume of 0.130 µL of each concentration was transferred to the relevant wells of a 384-well plate (Greiner 781 201) in duplicate using a TTPLabtech Mosquito nano-litre dispenser. Using a Multidrop Combi, the remaining constituents of the kinase reaction were added to the 130 nL of dosed compound as follows (see table below for final reaction details):Enzyme activity assays at the APPKM for ATP or 1 mM ATP: In each well of a 384-well plate, 0.1 - 15 nM of untreated enzyme was incubated in a total of 13 µL of buffer (100 mM HEPES pH 7.5, 0.015% Brij 35, 10 mM MgCl2, 1mM DTT) with 1.5 µM fluorescent peptide and 20 - 1000 µM ATP, at 25 °C, for 60 - 180 minutes in the presence or absence of a dosed concentration series of compound (1% DMSO final concentration). The kinase reactions were stopped by the addition of 70 µl of Stop buffer (100 mM HEPES pH 7.5, 0.015% Brij 35, 35 mM EDTA and 0.2% of Coating Reagent 3 (Caliper Lifesciences)). The plates were read on a Caliper EZReader 2 as described above.
# Mitogen-activated protein kinase kinase kinase kinase 1, sequence (Q92918 whole entry): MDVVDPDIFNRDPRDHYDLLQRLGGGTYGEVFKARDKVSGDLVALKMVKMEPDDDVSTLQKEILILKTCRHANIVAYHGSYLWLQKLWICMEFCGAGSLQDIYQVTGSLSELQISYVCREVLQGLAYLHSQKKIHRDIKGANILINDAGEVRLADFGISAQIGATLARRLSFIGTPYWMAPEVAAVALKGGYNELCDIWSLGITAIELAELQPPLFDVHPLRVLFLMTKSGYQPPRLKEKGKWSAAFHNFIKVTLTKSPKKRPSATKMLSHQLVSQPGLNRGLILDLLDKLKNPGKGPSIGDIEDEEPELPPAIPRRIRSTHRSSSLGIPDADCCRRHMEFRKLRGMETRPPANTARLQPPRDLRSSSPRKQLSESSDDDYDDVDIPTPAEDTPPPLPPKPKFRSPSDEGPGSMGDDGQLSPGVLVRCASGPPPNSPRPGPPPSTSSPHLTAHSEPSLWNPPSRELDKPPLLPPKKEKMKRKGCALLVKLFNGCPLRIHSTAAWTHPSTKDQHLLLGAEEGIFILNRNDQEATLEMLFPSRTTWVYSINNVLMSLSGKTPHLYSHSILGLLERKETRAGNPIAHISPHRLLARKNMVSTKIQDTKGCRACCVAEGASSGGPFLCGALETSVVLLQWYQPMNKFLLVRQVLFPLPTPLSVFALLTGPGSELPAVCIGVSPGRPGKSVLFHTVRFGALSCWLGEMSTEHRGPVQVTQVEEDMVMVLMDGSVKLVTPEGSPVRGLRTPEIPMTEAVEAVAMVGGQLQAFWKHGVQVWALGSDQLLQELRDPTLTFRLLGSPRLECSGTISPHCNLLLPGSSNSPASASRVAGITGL
row,SMILES,IC50
1,"COc1ncc([C@@](C)(O)C(F)F)c2cc(Nc3ccnc(C(C)(C)F)n3)ncc12 [WO2023288264, Compound 11]",15 nM
2,"CCOc1ncc([C@@](C)(O)CC)c2cc(Nc3ccc4c(n3)[C@@H](C)C(C)(C)OC4=O)ncc12 [WO2023288264, Compound 24]",0.39 nM
3,"CC[C@@H](O)c1cnc(OC)c2cnc(Nc3ccc4c(n3)[C@@H](C)C(C)(C)OC4=O)cc12 [WO2023288264, Compound 14]",0.25 nM and 0.61 nM
4,"C[C@@H]1OC(=O)c2ccc(Nc3cc4c([C@@](C)(O)C5CC5)cnc(OC5CC5)c4cn3)nc2[C@H]1C [WO2023288264, Compound 25]",27 nM
5,"CC[C@@](C)(O)c1cnc(OC)c2cnc(Nc3ccc4c(n3)[C@@H](C)C(C)(C)OC4=O)cc12 [WO2023288264, Compound 17]",0.3 nM
6,"CC[C@](C)(O)c1cnc(NC2CC2)c2cnc(Nc3ccc4c(n3)[C@@H](C)[C@H](C)OC4=O)cc12 [WO2023288264, Compound 20]",3.48 nM
7,"COc1ncc([C@@H](C)O)c2cc(Nc3ccnc(C(C)(C)F)n3)ncc12 [WO2023288264, Compound 1]",121 nM
8,"COc1ncc(C(C)(C)O)c2cc(Nc3ccnc(N4CCCC4)n3)ncc12 [WO2023288264, Compound 9]",1.63 nM
9,"CC[C@H](O)c1cnc(OC)c2cnc(Nc3ccc4c(n3)[C@@H](C)C(C)(C)OC4=O)cc12 [WO2023288264, Compound 15]",3.06 nM
10,"COC[C@@H](O)c1cnc(OC)c2cnc(Nc3ccc4c(n3)[C@@H](C)C(C)(C)OC4=O)cc12 [WO2023288264, Compound 18]",1.65 nM
11,"CC[C@@](C)(O)c1cnc(NC2CC2)c2cnc(Nc3ccc4c(n3)[C@@H](C)[C@H](C)OC4=O)cc12 [WO2023288264, Compound 21]",1.98 nM
12,"CCOc1ncc([C@](C)(O)CC)c2cc(Nc3ccc4c(n3)[C@@H](C)C(C)(C)OC4=O)ncc12 [WO2023288264, Compound 23]",3.34 nM
13,"COC[C@H](O)c1cnc(OC)c2cnc(Nc3ccc4c(n3)[C@@H](C)C(C)(C)OC4=O)cc12 [WO2023288264, Compound 19]",14 nM
14,"COc1ncc([C@H](C)O)c2cc(Nc3ccnc(C(C)(C)F)n3)ncc12 [WO2023288264, Compound 2]",64 nM
15,"COc1ncc([C@](C)(O)C(F)F)c2cc(Nc3ccnc(C(C)(C)F)n3)ncc12 [WO2023288264, Compound 12]",47 nM
